Laboratory results taken from patent US10131652B2, “Pyrimidinyloxy benzene derivatives as herbicides” (E. I. DU PONT DE NEMOURS AND COMPANY, priority 2014, dated 2018).

Key:
Assay type in all cases: in vivo
[1] = test system: corn (Zea mays); test: Test B pre-/postemergence plant response
Source text: (§1) Seeds of plant species selected from bamyardgrass (Echinochloa crus-galli), kochia (Kochia scoparia), ragweed (common ragweed, Ambrosia elatior), Italian ryegrass (Lolium multiflorum), large (Lg) crabgrass (Digitaria sanguinalis), giant foxtail (Setaria faberii), momingglory (Ipomoea spp.), pigweed (Amaranthus retroflexus), velvetleaf (Abutilon theophrasti), wheat (Triticum aestivum), and corn (Zea mays) were planted into a blend of loam soil and sand and treated preemergence with a directed soil spray using test chemicals formulated in a non-phytotoxic solvent mixture which included a surfactant. At the same time, plants selected from these crop and weed species and also blackgrass (Alopecurus myosuroides), and galium (catchweed bedstraw, Galium aparine) were planted in pots containing the same blend of loam soil and sand and treated with postemergence applications of test chemicals formulated in the same manner. Plants ranged in height from 2 to 10 cm and were in the one- to two-leaf stage for the postemergence treatment. Treated plants and untreated controls were maintained in a greenhouse for approximately 10 days, after which time all treated plants were compared to untreated controls and visually evaluated for injury. Plant response ratings, summarized in Table B, are based on a 0 to 100 scale where 0 is no effect and 100 is complete control. A dash (-) response means no test result.

[2] = test system: barnyardgrass (Echinochloa crus-galli); test: Test B pre-/postemergence plant response
Source text: as §1

[3] = test system: velvetleaf (Abutilon theophrasti); test: Test B pre-/postemergence plant response; conditions: 1000 g ai/ha, 0 to 100 scale (0 no effect, 100 complete control)
Source text: as §1

[4] = test system: giant foxtail (Setaria faberii); test: Test B pre-/postemergence plant response
Source text: as §1

[5] = test system: morningglory (Ipomoea spp.); test: Test B pre-/postemergence plant response; conditions: 1000 g ai/ha, 0 to 100 scale (0 no effect, 100 complete control)
Source text: as §1

[6] = test system: pigweed (Amaranthus retroflexus); test: Test B pre-/postemergence plant response
Source text: as §1

[7] = test system: wheat (Triticum aestivum); test: Test B pre-/postemergence plant response
Source text: as §1

[8] = test system: large (Lg) crabgrass (Digitaria sanguinalis); test: Test B pre-/postemergence plant response; conditions: 1000 g ai/ha, 0 to 100 scale (0 no effect, 100 complete control)
Source text: as §1

[9] = test system: galium (catchweed bedstraw, Galium aparine); test: Test B postemergence plant response
Source text: (§2) At the same time, plants selected from these crop and weed species and also blackgrass (Alopecurus myosuroides), and galium (catchweed bedstraw, Galium aparine) were planted in pots containing the same blend of loam soil and sand and treated with postemergence applications of test chemicals formulated in the same manner. Plants ranged in height from 2 to 10 cm and were in the one- to two-leaf stage for the postemergence treatment. Treated plants and untreated controls were maintained in a greenhouse for approximately 10 days, after which time all treated plants were compared to untreated controls and visually evaluated for injury. Plant response ratings, summarized in Table B, are based on a 0 to 100 scale where 0 is no effect and 100 is complete control. A dash (-) response means no test result.

[10] = test system: blackgrass (Alopecurus myosuroides); test: Test B postemergence plant response
Source text: as §2

[11] = test system: Italian ryegrass (Lolium multiflorum); test: Test B pre-/postemergence plant response
Source text: as §1

[12] = test system: kochia (Kochia scoparia); test: Test B pre-/postemergence plant response
Source text: as §1

[13] = test system: ragweed (common ragweed, Ambrosia elatior); test: Test B pre-/postemergence plant response
Source text: as §1

[14] = Postemergence, 1000 g ai/ha, 0 to 100 scale (0 no effect, 100 complete control)
[15] = Preemergence, 1000 g ai/ha, 0 to 100 scale (0 no effect, 100 complete control)
[16] = Postemergence, 500 g ai/ha, 0 to 100 scale (0 no effect, 100 complete control)
[17] = Preemergence, 500 g ai/ha, 0 to 100 scale where 0 is no effect and 100 is complete control
[18] = 31 g ai/ha, Postemergence, 0 to 100 scale, 0 no effect, 100 complete control
[19] = 125 g ai/ha, postemergence, 0 to 100 scale, 0 no effect, 100 complete control
[20] = Preemergence, 31 g ai/ha, 0 to 100 scale (0 no effect, 100 complete control)
[21] = Preemergence, 125 g ai/ha, 0 to 100 scale where 0 is no effect and 100 is complete control

CN(C)c1ccc(-c2ccccc2Oc2ncc(Cl)cn2)cn1 [Compound 2]
Plant response rating, Corn [1, 14]: 0 | Plant response rating, Corn [1, 15]: 0 | Plant response rating, Barnyardgrass [2, 14]: 0 | Plant response rating, Barnyardgrass [2, 15]: 0 | Plant response rating, Velvetleaf ([3]; Postemergence): 50 | Plant response rating, Velvetleaf ([3]; Preemergence): 20 | Plant response rating, Foxtail, Giant [4, 14]: 0 | Plant response rating, Foxtail, Giant [4, 15]: 10 | Plant response rating, Morningglory ([5]; Postemergence): 40 | Plant response rating, Morningglory ([5]; Preemergence): 0 | Plant response rating, Pigweed [6, 14]: 70 | Plant response rating, Pigweed [6, 15]: 100 | Plant response rating, Wheat [7, 14]: 0 | Plant response rating, Wheat [7, 15]: 0 | Plant response rating, Crabgrass, Large ([8]; Postemergence): 0 | Plant response rating, Crabgrass, Large ([8]; Preemergence): 10

Clc1cnc(Oc2ccccc2-c2ncc(Cl)cn2)nc1 [Compound 3]
Plant response rating, Corn [1, 14]: 10 | Plant response rating, Corn [1, 15]: 0 | Plant response rating, Barnyardgrass [2, 14]: 50 | Plant response rating, Barnyardgrass [2, 15]: 60 | Plant response rating, Velvetleaf ([3]; Postemergence): 100 | Plant response rating, Velvetleaf ([3]; Preemergence): 90 | Plant response rating, Foxtail, Giant [4, 14]: 20 | Plant response rating, Foxtail, Giant [4, 15]: 70 | Plant response rating, Morningglory ([5]; Postemergence): 60 | Plant response rating, Morningglory ([5]; Preemergence): 0 | Plant response rating, Pigweed [6, 14]: 70 | Plant response rating, Pigweed [6, 15]: 50 | Plant response rating, Wheat [7, 14]: 10 | Plant response rating, Wheat [7, 15]: 0 | Plant response rating, Crabgrass, Large ([8]; Postemergence): 10 | Plant response rating, Crabgrass, Large ([8]; Preemergence): 40

Brc1cnc(Oc2ccccc2-c2nnco2)nc1 [Compound 5]
Plant response rating, Corn [1, 14]: 0 | Plant response rating, Corn [1, 15]: 0 | Plant response rating, Barnyardgrass [2, 14]: 20 | Plant response rating, Barnyardgrass [2, 15]: 0 | Plant response rating, Velvetleaf ([3]; Postemergence): 30 | Plant response rating, Velvetleaf ([3]; Preemergence): 20 | Plant response rating, Foxtail, Giant [4, 14]: 0 | Plant response rating, Foxtail, Giant [4, 15]: 0 | Plant response rating, Morningglory ([5]; Postemergence): 20 | Plant response rating, Morningglory ([5]; Preemergence): 0 | Plant response rating, Pigweed [6, 14]: 70 | Plant response rating, Pigweed [6, 15]: 90 | Plant response rating, Wheat [7, 14]: 0 | Plant response rating, Wheat [7, 15]: 0 | Plant response rating, Crabgrass, Large ([8]; Postemergence): 0 | Plant response rating, Crabgrass, Large ([8]; Preemergence): 0

Clc1cnc(Oc2ccccc2-c2nnco2)nc1 [Compound 6]
Plant response rating, Corn [1, 14]: 0 | Plant response rating, Corn [1, 15]: 0 | Plant response rating, Barnyardgrass [2, 14]: 0 | Plant response rating, Barnyardgrass [2, 15]: 0 | Plant response rating, Velvetleaf ([3]; Postemergence): 30 | Plant response rating, Velvetleaf ([3]; Preemergence): 20 | Plant response rating, Foxtail, Giant [4, 14]: 0 | Plant response rating, Foxtail, Giant [4, 15]: 0 | Plant response rating, Morningglory ([5]; Postemergence): 20 | Plant response rating, Morningglory ([5]; Preemergence): 0 | Plant response rating, Pigweed [6, 14]: 70 | Plant response rating, Pigweed [6, 15]: 70 | Plant response rating, Wheat [7, 14]: 0 | Plant response rating, Wheat [7, 15]: 0 | Plant response rating, Crabgrass, Large ([8]; Postemergence): 20 | Plant response rating, Crabgrass, Large ([8]; Preemergence): 0

ON=Cc1cc(-c2ccccc2Oc2ncc(Cl)cn2)no1 [Compound 37]
Plant response rating, Galium [9, 16]: 0 | Plant response rating, Blackgrass [10, 16]: 0 | Plant response rating, Corn [1, 16]: 0 | Plant response rating, Barnyardgrass [2, 16]: 0 | Plant response rating, Barnyardgrass [2, 17]: 0 | Plant response rating, Ryegrass, Italian [11, 16]: 0 | Plant response rating, Ryegrass, Italian [11, 17]: 0 | Plant response rating, Foxtail, Giant [4, 16]: 10 | Plant response rating, Foxtail, Giant [4, 17]: 0 | Plant response rating, Kochia [12, 16]: 0 | Plant response rating, Kochia [12, 17]: 0 | Plant response rating, Ragweed [13, 16]: 0 | Plant response rating, Ragweed [13, 17]: 0 | Plant response rating, Pigweed [6, 16]: 20 | Plant response rating, Pigweed [6, 17]: 40 | Plant response rating, Wheat [7, 16]: 0

FC(F)=Cc1cc(-c2c(F)cccc2Oc2ncc(Cl)cn2)no1 [Compound 91]
Plant response rating, Galium [9, 18]: 0 | Plant response rating, Galium [9, 19]: 0 | Plant response rating, Blackgrass [10, 18]: 0 | Plant response rating, Blackgrass [10, 19]: 0 | Plant response rating, Corn [1, 18]: 0 | Plant response rating, Corn [1, 19]: 0 | Plant response rating, Barnyardgrass [2, 18]: 0 | Plant response rating, Barnyardgrass [2, 19]: 0 | Barnyardgrass plant response rating [2, 20]: 0 | Plant response rating, Barnyardgrass [2, 21]: 0 | Plant response rating, Ryegrass, Italian [11, 18]: 0 | Plant response rating, Ryegrass, Italian [11, 19]: 0 | Ryegrass, Italian plant response rating [11, 20]: 0 | Plant response rating, Ryegrass, Italian [11, 21]: 0 | Plant response rating, Foxtail, Giant [4, 18]: 0 | Plant response rating, Foxtail, Giant [4, 19]: 0 | Foxtail, Giant plant response rating [4, 20]: 0 | Plant response rating, Foxtail, Giant [4, 21]: 0 | Plant response rating, Kochia [12, 18]: 0 | Plant response rating, Kochia [12, 19]: 0 | Kochia plant response rating [12, 20]: 0 | Plant response rating, Kochia [12, 21]: 0 | Plant response rating, Ragweed [13, 18]: 0 | Plant response rating, Ragweed [13, 19]: 0 | Ragweed plant response rating [13, 20]: 0 | Plant response rating, Ragweed [13, 21]: 0 | Plant response rating, Pigweed [6, 18]: 0 | Plant response rating, Pigweed [6, 19]: 0 | Pigweed plant response rating [6, 20]: 0 | Plant response rating, Pigweed [6, 21]: 0 | Plant response rating, Wheat [7, 18]: 0 | Plant response rating, Wheat [7, 19]: 0

CCOC(=O)c1cc(-c2ccccc2Oc2ncc(Cl)cn2)no1 [Compound 148]
Plant response rating, Galium [9, 14]: 0 | Plant response rating, Blackgrass [10, 14]: 10 | Plant response rating, Corn [1, 14]: 0 | Plant response rating, Barnyardgrass [2, 14]: 10 | Plant response rating, Barnyardgrass [2, 15]: 0 | Plant response rating, Ryegrass, Italian [11, 14]: 0 | Plant response rating, Ryegrass, Italian [11, 15]: 0 | Plant response rating, Foxtail, Giant [4, 14]: 10 | Plant response rating, Foxtail, Giant [4, 15]: 0 | Plant response rating, Kochia [12, 14]: 0 | Plant response rating, Kochia [12, 15]: 0 | Plant response rating, Ragweed [13, 14]: 0 | Plant response rating, Pigweed [6, 14]: 0 | Plant response rating, Pigweed [6, 15]: 0 | Plant response rating, Wheat [7, 14]: 0

Clc1cnc(Oc2ccccc2-c2ncns2)nc1 [Compound 172]
Plant response rating, Galium [9, 14]: 10 | Plant response rating, Blackgrass [10, 14]: 0 | Plant response rating, Corn [1, 14]: 10 | Plant response rating, Barnyardgrass [2, 14]: 10 | Plant response rating, Barnyardgrass [2, 15]: 0 | Plant response rating, Ryegrass, Italian [11, 14]: 0 | Plant response rating, Ryegrass, Italian [11, 15]: 0 | Plant response rating, Foxtail, Giant [4, 14]: 10 | Plant response rating, Foxtail, Giant [4, 15]: 30 | Plant response rating, Kochia [12, 14]: 30 | Plant response rating, Kochia [12, 15]: 20 | Plant response rating, Ragweed [13, 14]: 10 | Plant response rating, Ragweed [13, 15]: 0 | Plant response rating, Pigweed [6, 14]: 80 | Plant response rating, Pigweed [6, 15]: 90 | Plant response rating, Wheat [7, 14]: 0

O=Cc1cc(-c2c(Br)cccc2Oc2ncc(Cl)cn2)no1 [Compound 195]
Plant response rating, Galium [9, 14]: 10 | Plant response rating, Blackgrass [10, 14]: 0 | Plant response rating, Corn [1, 14]: 10 | Plant response rating, Barnyardgrass [2, 14]: 10 | Plant response rating, Barnyardgrass [2, 15]: 40 | Plant response rating, Ryegrass, Italian [11, 14]: 10 | Plant response rating, Ryegrass, Italian [11, 15]: 0 | Plant response rating, Foxtail, Giant [4, 14]: 10 | Plant response rating, Foxtail, Giant [4, 15]: 30 | Plant response rating, Kochia [12, 14]: 10 | Plant response rating, Kochia [12, 15]: 0 | Plant response rating, Ragweed [13, 14]: 10 | Plant response rating, Ragweed [13, 15]: 10 | Plant response rating, Pigweed [6, 14]: 50 | Plant response rating, Pigweed [6, 15]: 60 | Plant response rating, Wheat [7, 14]: 0

COC(=O)c1cc(-c2ccccc2Oc2ncc(Cl)cn2)no1 [Compound 235]
Plant response rating, Galium [9, 14]: 0 | Plant response rating, Blackgrass [10, 14]: 0 | Plant response rating, Corn [1, 14]: 0 | Plant response rating, Barnyardgrass [2, 14]: 0 | Plant response rating, Barnyardgrass [2, 15]: 0 | Plant response rating, Ryegrass, Italian [11, 14]: 0 | Plant response rating, Ryegrass, Italian [11, 15]: 0 | Plant response rating, Foxtail, Giant [4, 14]: 0 | Plant response rating, Foxtail, Giant [4, 15]: 0 | Plant response rating, Kochia [12, 14]: 0 | Plant response rating, Kochia [12, 15]: 0 | Plant response rating, Ragweed [13, 14]: 0 | Plant response rating, Ragweed [13, 15]: 0 | Plant response rating, Pigweed [6, 14]: 0 | Plant response rating, Pigweed [6, 15]: 0 | Plant response rating, Wheat [7, 14]: 0
